Reference: US11331330B2, “Phytochemical-antibiotic combination for the treatment of a bacterial infection” (University of Saskatchewan, priority 2018, dated 2022)
Values after ≈ are worked out from the molar mass of the structure shown. “Also recorded” adds a separate entry of the source.

How the values were obtained:
M. haemolytica = assay: Resistance generation study; type: cell-based, Mannheimia haemolytica; settings: sub-MIC (1/2 MIC) doses, stress generation conditions
Procedure: (§1) For the resistance generation studies, M. haemolytica and P. multocida were cultured in the presence of sub-MIC doses (1/2 MIC) of tulathromycin and gallic acid individually until they reach 1 unit OD at 565 nm. The bacterial cells were then given antibiotic stress relaxation by culturing them in BHIB till 1 OD unit of turbidity is reached at 565 nm. This first pass cycle of culturing in sub-MIC dose of tulathromycin, and relaxing in BHIB is considered as 1st generation (1G-TulathromycinA). The cycle as above was repeated to obtain 2nd and 3rd generation of bacterial cultures. Subsequently, MIC assays were performed with all the three generations of the two bacterial strains to evaluate the level of sensitivity towards tulathromycin. The experiments were repeated with gallic acid.
(§2) Bacteria were treated individually with sub-MIC dose (½ MIC) of tulathromycin and gallic acid with alternate relaxation of stress in BHIB for […] each. Each 24 hrs treatment was considered as 1 generation (24 hrs drug+24 hrs of BHIB).

P. multocida = assay: Resistance generation study; type: cell-based, Pasteurella multocida; settings: sub-MIC (1/2 MIC) doses, stress generation conditions
Procedure: as §1, §2

[1] = test system: M. haemolytica ATCC 29702; assay: Synergy studies, checker board serial dilution; type: cell-based, Mannheimia haemolytica; settings: gallic acid alone, 3.9 μg/ml dose
Procedure: (§3) For the drug interaction studies, gallic acid was mixed with tulathromycin to test the drug interactions between tulathromycin and gallic acid. This was done by a checker board serial dilution technique performed in 96-well polypropylene plates (as explained elsewhere, for example, in [11]). The fractional inhibitory concentration (FIC) index of the combinations of antimicrobial compounds was calculated according to the equation: FIC index=FICA+FICB=A/MICA+B/MICB where A (gallic acid) and B (Tulathromycin) are the MICs of compound A and compound B in combination. MICA and MICB are the MICs of compound A and compound B, separately, FICA and FICB are the FICs of compound A and compound B (Hal M J J Antimicrob Chemother. 1983 May; 11(5):427-33). Results (a) Antimicrobial Activity of Tulathromycin and Gallic Acid
(§4) • FICA, FICB—Fractional inhibitory concentration of drug A & B respectively. • MICA, MICB—Minimum inhibitory concentration of drug A & B respectively. • [A], [B]—Concentration of drug A & B respectively. • The FIC indexes were interpreted as follows: synergy is defined as ≤0.5; additivity is defined as 0.5<4.0; and antagonism is defined as >4. (d) Resistance Generation Study Results

[2] = test system: co-culture of M. haemolytica and P. multocida; assay: MIC against the co-culture; type: cell-based
Procedure: MIC of tulathromycin, gallic acid and its combinations were determined against the co-culture of M. haemolytica and P. multocida. The overnight grown cultures of M. haemolytica and P. multocida were adjusted to 0.5 McFarland standard turbidity in BHIB, and then equal proportion of each of the cultures was added in the 96 well plates. After the addition of serially diluted drugs, the plates were incubated at 37° C. overnight and read as of above.

[3] = test system: Mannheimia haemolytica ATCC 29702; assay: MIC by standard broth micro dilution assay (CLSI); type: cell-based; settings: ATCC29702, M. haemolytica, BHIB, 37° C., 18-24 h
Procedure: (§5) The bacterial strains of Mannheimia haemolytica ATCC 29702 and Pasteurella multocida ATCC 43137 were purchased from American Type Culture Collection (ATCC) distributor CEDARLANE Corporation, Burlington, Ontario, Canada and revived according to the manufacturer's instruction. Bacteria were grown in Brain Heart Infusion broth (BHIB).
(§6) MIC of tulathromycin and gallic acid against Mannheimia haemolytica and Pasteurella multocida was determined by using standard broth micro dilution assay as outlined by CLSI (Richard S, Lynn S-M, Avery C G. Antimicrobial susceptibility testing protocols. New York: CRC Press; 2007). Strains were sub-cultured in Brain Heart Infusion Broth (BHIB), incubated at 37° C. overnight and bacterial suspension OD was adjusted with the media to 0.5 McFarland turbidity as per CLSI protocol (Approx. cell density 1.5×10^8 CFU/mL) using normal saline as control. 100 μl of broth was added to each well (including positive control wells) and then serial dilution of tulathromycin (5 to 0.04 μg/ml) and gallic acid (500 to 3.9 μg/ml) was executed. 5 μl of bacterial sample was added to all the wells except the positive control well. […] Plates were then incubated at 37° C. for 18-24 h and were subsequently read automatically by using 96 well plate reader (BIORAD iMark Microplate Reader) at 655 nm. The readings were double checked manually using the Sensititre Vizion System.

[4] = test system: Pasteurella multocida ATCC 43137; assay: MIC by standard broth micro dilution assay (CLSI); type: cell-based; settings: ATCC43137, P. multocida, BHIB, 37° C., 18-24 h
Procedure: as §5, §6

P. multocida ATCC 43137 = assay: Synergy studies, checker board serial dilution; type: cell-based, Pasteurella multocida; settings: gallic acid alone, 3.9 μg/ml dose
Procedure: as §3, §4

arginase = arginase inhibitor; cited from earlier work

In the case of `O=C(O)c1cc(O)c(O)c(O)c1` [gallic acid], the “effect of sub-MIC pre-treatment on sensitivity of the bacteria” value (M. haemolytica) is reported as “does not affect the sensitivity; also recorded: no effect on the sensitivity”, the “effect of sub-MIC pre-treatment on sensitivity of the bacteria” value (P. multocida) is reported as “did not alter the sensitivity; also recorded: no effect on the sensitivity” and the “maximum reduction in bacterial growth” value [1] is reported as 7.70%. For the same compound, the MIC [2] was 500 mg/L, the MIC [3] was 250 mg/L (≈ 1470 µM) and the MIC [4] was 500 mg/L (≈ 2940 µM). The “maximum reduction in bacterial growth” value (P. multocida ATCC 43137) was 5.33% and the IC50 (arginase) was 2.2 µM.
